{"source": "patent US20250011404A1", "about": "“TARGETING APOE ENHANCES T-CELL KILLING IN CANCER IMMUNOTHERAPY” (Children's National Medical Center, priority 2021, published 2025)", "key": {"[1]": {"tested_on": "splenocytes co-cultured with Myc-inhibited B16 tumor cells", "assay": "ProcartaPlex multiplex immunoassay of splenocyte/B16 co-cultures", "assay_type": "cell-based, mouse", "description": "To further investigate the influence of tumor secreted apoE on immune cell function, immunogenic B16 tumor cells (B16 cells treated with Myc inhibitors (0.25 μM BET+0.25 μM JQ1 for 4 days) were irradiated at 60 Gray and co-cultured with naïve C57/BL6 splenocytes in the presence of either apoE mimetic COG133 at 0.3, 3 and 9 μM or anti-APOE blocking antibody at 1, 10 and 30 μg/ml concentrations. Prior work has shown the immunogenic effect of treating cancer cells with Myc inhibitors and irradiation. IFNγ production was quantified by ELISA at 48 h. Splenocytes produced high levels of IFNγ when co-cultured with Myc-inhibited immunogenic B16 cells as shown in FIGS. 3A-3C. Exposure of these cells to apoE mimetic COG133 repressed IFNγ production (6-fold reduction) (FIG. 3A), while the presence of Anti-APOE antibody enhanced IFNγ production (3-fold increase) (FIG. 3B). We also tested IFNγ production from vaccinated splenocytes following co-culture with treated and untreated B16 cells in the presence of COG 133. To obtain vaccinated splenocytes, 10^4 WT B16 tumor cells and 100 μg/ml anti-CTLA4 antibody were administered to C57BL/6 mice on day 0, and splenocytes were collected at day 7 after tumor cell inoculation. Compared with naïve splenocytes, vaccinated splenocytes produced dramatically greater level of IFNγ, especially when they were co-cultured with Myc inhibited B16 tumor cells. […] In addition to IFNγ, we also quantified other cytokine/chemokines using ProcartaPlex multiplex immunoassay. […] Within these 14 cytokines, four of them including IFN[…], IL6, IL18 and RANTES (CCL5) were suppressed after exposure to apoE peptide mimetic COG133 in a dose dependent manner (FIG. 17).\nCell culture supernatant was collected after centrifuge at 1,200 rpm for 10 min at 4° C. The concentrations of the following immune molecules were determined using the mouse Cytokine & Chemokine 36-plex ProcartaPlex Panel, a magnetic bead-based multiplex immunoassay (Thermo Scientific) following our previous protocol(19). Briefly, cell culture supernatant samples were mixed with antibody-linked polystyrene beads on a 96-well plate and incubated at room temperature (RT) for 2 h on an orbital shaker at 500 rpm. After washing, plates were incubated with biotinylated detection antibody for 30 min at RT. Plates were then washed twice and then labeled beads were resuspended in streptavidin-PE. Each sample was measured in duplicate along with standards (8-point dilutions) and the buffer control. Plates were read using a Luminex Bio-plex 200 system (Bio-Rad Corp.) for quantitative analysis."}, "[2]": {"tested_on": "vaccinated splenocytes co-cultured with Myc inhibited B16 tumor cells", "assay": "IFNγ ELISA, vaccinated splenocytes co-cultured with immunogenic B16 cells", "assay_type": "cell-based, mouse", "details": "vaccinated WT splenocytes + Myc-inhibited B16 cells, 48 hr, in presence of COG133, dose dependent", "description": "To further investigate the influence of tumor secreted apoE on immune cell function, immunogenic B16 tumor cells (B16 cells treated with Myc inhibitors (0.25 μM BET+0.25 μM JQ1 for 4 days) were irradiated at 60 Gray and co-cultured with naïve C57/BL6 splenocytes in the presence of either apoE mimetic COG133 at 0.3, 3 and 9 μM or anti-APOE blocking antibody at 1, 10 and 30 μg/ml concentrations. Prior work has shown the immunogenic effect of treating cancer cells with Myc inhibitors and irradiation. IFNγ production was quantified by ELISA at 48 h. Splenocytes produced high levels of IFNγ when co-cultured with Myc-inhibited immunogenic B16 cells as shown in FIGS. 3A-3C. Exposure of these cells to apoE mimetic COG133 repressed IFNγ production (6-fold reduction) (FIG. 3A), while the presence of Anti-APOE antibody enhanced IFNγ production (3-fold increase) (FIG. 3B). We also tested IFNγ production from vaccinated splenocytes following co-culture with treated and untreated B16 cells in the presence of COG 133. […] In addition to IFNγ, we also quantified other cytokine/chemokines using ProcartaPlex multiplex immunoassay. […] In addition, using ProcartaPlex multiplex immunoassay, we also quantified other cytokines/chemokines produced in the reaction. […] Readings were measured at 450 nm using the EnSpire 2300 Multilabel plate reader (Perkin Elmer, Waltham, Massachusetts, US)."}}, "note": "“Also recorded” adds a separate entry of the source.", "data": [{"substance": "COG133: a fragment of apoE peptide, which competes with the apoE holoprotein for binding the LDL receptors and acts as an apoE mimetic", "values": [{"measurement": "IL-13, IL-4, IL22, IL18, MCP-1, RANTES and Gro-α, WT vaccinated splenocytes", "setting": "[1]; co-culture with Myc-inhibited B16 cells 48 hr, multiplex immunoassay (FIG. 18)", "value": "suppression"}, {"measurement": "production of IFNγ, IL-6 and IL-18, naïve splenocytes", "setting": "[1]; co-cultures with naïve splenocytes, 48 hr, multiplex ELISA (FIG. 17)", "value": "suppressive effect"}, {"measurement": "production of IFNγ, IL-6 and IL-18, vaccinated splenocytes", "setting": "[1]; co-cultures with vaccinated splenocytes, 48 hr, multiplex ELISA (FIG. 17)", "value": "diminished in vaccinated splenocytes is still observed"}, {"measurement": "IFNγ, IL6, IL18 and RANTES (CCL5) production", "setting": "[1]; splenocytes + Myc-inhibited B16 cells, multiplex immunoassay, dose dependent manner", "value": "suppressed"}, {"measurement": "IFNγ production from vaccinated splenocytes", "setting": "[2]", "value": "inhibited; also recorded: inhibitory; also recorded: significantly suppressed"}, {"measurement": "IFNγ production from vaccinated splenocytes", "setting": "[2]; listed as COG 133", "value": "suppressed"}]}]}
